Measurements from ChEMBL document CHEMBL1141370, “Biologically active triterpenoid saponins from Ardisia japonica” (J Nat Prod, 2007).
pIC50: −log10 of the molar value.

Assays:
Assay type in all cases: cell-based
[1] = tested on: A549; assay: Cytotoxicity against human A549 cell line by MTT assay
[2] = Cytotoxicity against human KATO3 cell line by MTT assay
[3] = tested on: HL-60; assay: Cytotoxicity against human HL60 cell line by MTT assay

For C[C@@H]1O[C@@H](O[C@H]2[C@H](O[C@H]3CO[C@@H](O[C@H]4CC[C@]5(C)[C@H]6CC[C@]78OC[C@@]9(CCC(C)(C)C[C@H]97)[C@H](O)C[C@@]8(C)[C@]6(C)CC[C@H]5C4(C)C)[C@H](O[C@@H]4O[C@H](CO)[C@@H](O)[C@H](O)[C@H]4O)[C@H]3O)O[C@H](CO)[C@@H](O)[C@@H]2O)[C@H](O)[C@H](O)[C@H]1O, the pIC50 [1] was 5.43, the pIC50 [2] was 6.40 and the pIC50 [3] was 5.72.

Work on C[C@@H]1O[C@@H](O[C@H]2[C@H](O[C@H]3CO[C@@H](O[C@H]4CC[C@]5(C)[C@H]6CC[C@]78OC[C@@]9(CC[C@](C)(C=O)C[C@H]97)[C@H](O)C[C@@]8(C)[C@]6(C)CC[C@H]5C4(C)C)[C@H](O[C@@H]4O[C@H](CO)[C@@H](O)[C@H](O)[C@H]4O)[C@H]3O)O[C@H](CO)[C@@H](O)[C@@H]2O)[C@H](O)[C@H](O)[C@H]1O [ARDISIACRISPIN B] yielded a pIC50 [1] of 5.44, a pIC50 [2] of 5.92 and a pIC50 [3] of 5.49.

In the case of C[C@@H]1O[C@@H](O[C@H]2[C@H](O[C@H]3CO[C@@H](O[C@H]4CC[C@]5(C)[C@H]6CC=C7[C@@H]8C[C@@](C)(CO)CC[C@]8(CO)[C@H](O)C[C@@]7(C)[C@]6(C)CC[C@H]5C4(C)C)[C@H](O[C@@H]4O[C@H](CO)[C@@H](O)[C@H](O)[C@H]4O)[C@H]3O)O[C@H](CO)[C@@H](O)[C@@H]2O)[C@H](O)[C@H](O)[C@H]1O [ARDISIAMAMILLOSEDE C], the pIC50 [1] was under 4.00, the pIC50 [2] was under 4.00 and the pIC50 [3] was under 4.00.

C[C@@H]1O[C@@H](O[C@H]2[C@H](O[C@H]3CO[C@@H](O[C@H]4CC[C@]5(C)[C@H]6CC[C@]78OC[C@@]9(CC[C@](C)(C(=O)O)C[C@H]97)[C@H](O)C[C@@]8(C)[C@]6(C)CC[C@H]5C4(C)C)[C@H](O[C@@H]4O[C@H](CO)[C@@H](O)[C@H](O)[C@H]4O)[C@H]3O)O[C@H](CO)[C@@H](O)[C@@H]2O)[C@H](O)[C@H](O)[C@H]1O [ARDISIAMAMILLOSIDE F] gave a pIC50 [1] of under 4.00, a pIC50 [2] of under 4.00 and a pIC50 [3] of under 4.00.

For C[C@@H]1O[C@@H](O[C@H]2[C@H](O[C@H]3CO[C@@H](O[C@H]4CC[C@]5(C)[C@H]6CC[C@]78OC[C@@]9(CC[C@](C)(C=O)C[C@H]97)C(=O)C[C@@]8(C)[C@]6(C)CC[C@H]5C4(C)C)[C@H](O)[C@H]3O)O[C@H](CO)[C@@H](O)[C@@H]2O)[C@H](O)[C@H](O)[C@H]1O [ARDISIAMAMILLOSIDE H], the pIC50 [1] was 4.43, the pIC50 [2] was 4.67 and the pIC50 [3] was 4.51.

For CC1(C)CC[C@]23CO[C@@]4(CC[C@@H]5[C@@]6(C)CC[C@H](O[C@@H]7OC[C@H](O[C@@H]8O[C@H](CO)[C@@H](O)[C@H](O[C@@H]9O[C@H](CO)[C@@H](O)[C@H](O[C@@H]%10O[C@H](CO)[C@@H](O)[C@H](O)[C@H]%10O)[C@H]9O)[C@H]8O[C@@H]8OC[C@@H](O)[C@H](O)[C@H]8O)[C@H](O)[C@H]7O[C@@H]7O[C@H](CO)[C@@H](O)[C@H](O)[C@H]7O)C(C)(C)[C@@H]6CC[C@@]5(C)[C@]4(C)C[C@H]2O)[C@@H]3C1 [ARDISIANOSIDE B], the pIC50 [1] was 5.51, the pIC50 [2] was 6.52 and the pIC50 [3] was 5.62.

C[C@@H]1O[C@@H](O[C@H]2[C@H](O[C@H]3CO[C@@H](O[C@H]4CC[C@]5(C)[C@H]6CC[C@]78OC[C@@]9(CCC(C)(C)C[C@H]97)[C@H](O)C[C@@]8(C)[C@]6(C)CC[C@H]5C4(C)C)[C@H](O)[C@H]3O)O[C@H](CO)[C@@H](O)[C@@H]2O)[C@H](O)[C@H](O)[C@H]1O [ARDISIANOSIDE C] showed a pIC50 [1] of 5.49, a pIC50 [2] of 5.89 and a pIC50 [3] of 5.57.

Work on CC1(C)CC[C@]23CO[C@@]4(CC[C@@H]5[C@@]6(C)CC[C@H](O[C@@H]7OC[C@H](O[C@@H]8O[C@H](CO)[C@@H](O)[C@H](O)[C@H]8O[C@@H]8OC[C@@H](O)[C@H](O)[C@H]8O)[C@H](O)[C@H]7O)C(C)(C)[C@@H]6CC[C@@]5(C)[C@]4(C)C[C@H]2O)[C@@H]3C1 [ARDISIANOSIDE D] yielded a pIC50 [1] of 4.62, a pIC50 [2] of 5.82 and a pIC50 [3] of 5.46.

Work on CC1(C)[C@@H](O[C@@H]2OC[C@H](O[C@@H]3O[C@H](CO)[C@@H](O)[C@H](O)[C@H]3O)[C@H](O)[C@H]2O[C@@H]2O[C@H](CO)[C@@H](O)[C@H](O)[C@H]2O)CC[C@]2(C)[C@H]3CC[C@]45OC[C@@]6(CC[C@](C)(CO)C[C@H]64)[C@H](O)C[C@@]5(C)[C@]3(C)CC[C@@H]12 [ARDISIANOSIDE E] yielded a pIC50 [1] of 5.51, a pIC50 [2] of 6.40 and a pIC50 [3] of 5.47.

Compound CC1(C)[C@@H](O[C@@H]2OC[C@H](O[C@@H]3O[C@H](CO)[C@@H](O)[C@H](O[C@@H]4O[C@H](CO)[C@@H](O)[C@H](O)[C@H]4O)[C@H]3O[C@@H]3OC[C@@H](O)[C@H](O)[C@H]3O)[C@H](O)[C@H]2O[C@@H]2O[C@H](CO)[C@@H](O)[C@H](O)[C@H]2O)CC[C@]2(C)[C@H]3CC[C@]45OC[C@@]6(CC[C@](C)(CO)C[C@H]64)[C@H](O)C[C@@]5(C)[C@]3(C)CC[C@@H]12 [ARDISIANOSIDE F] has a pIC50 [1] of 4.44, a pIC50 [2] of 4.42 and a pIC50 [3] of under 4.00.

Work on C[C@@H]1O[C@@H](O[C@H]2[C@H](O[C@H]3CO[C@@H](O[C@H]4CC[C@]5(C)[C@H]6CC[C@]78OC[C@@]9(CC[C@](C)(O)C[C@H]97)[C@H](O)C[C@@]8(C)[C@]6(C)CC[C@H]5C4(C)C)[C@H](O[C@@H]4O[C@H](CO)[C@@H](O)[C@H](O)[C@H]4O)[C@H]3O)O[C@H](CO)[C@@H](O)[C@@H]2O)[C@H](O)[C@H](O)[C@H]1O [ARDISIANOSIDE G] yielded a pIC50 [1] of under 4.00, a pIC50 [2] of under 4.00 and a pIC50 [3] of under 4.00.

CC1(C)CC[C@]23C(=O)O[C@@]4(CC[C@@H]5[C@@]6(C)CC[C@H](O[C@@H]7OC[C@H](O[C@@H]8O[C@H](CO)[C@@H](O)[C@H](O[C@@H]9O[C@H](CO)[C@@H](O[C@@H]%10O[C@H](CO)[C@@H](O)[C@H](O)[C@H]%10O)[C@H](O[C@@H]%10O[C@H](CO)[C@@H](O)[C@H](O)[C@H]%10O)[C@H]9O)[C@H]8O[C@@H]8OC[C@@H](O)[C@H](O)[C@H]8O)[C@H](O)[C@H]7O[C@@H]7O[C@H](CO)[C@@H](O)[C@H](O)[C@H]7O)C(C)(C)[C@@H]6CC[C@@]5(C)[C@]4(C)C[C@H]2O)[C@@H]3C1 [ARDISIANOSIDE H] gave a pIC50 [1] of 4.48, a pIC50 [2] of 5.08 and a pIC50 [3] of 4.55.

With C[C@@H]1O[C@@H](O[C@H]2[C@H](O[C@H]3CO[C@@H](O[C@H]4CC[C@]5(C)[C@H]6CC[C@]78OC(=O)[C@@]9(CC[C@](C)(CO)C[C@H]97)[C@H](O)C[C@@]8(C)[C@]6(C)CC[C@H]5C4(C)C)[C@H](O[C@@H]4O[C@H](CO)[C@@H](O)[C@H](O)[C@H]4O)[C@H]3O)O[C@H](CO)[C@@H](O)[C@@H]2O)[C@H](O)[C@H](O)[C@H]1O [ARDISIANOSIDE I] the pIC50 [1] was under 4.00, the pIC50 [2] was under 4.00 and the pIC50 [3] was under 4.00.

With C[C@@H]1O[C@@H](O[C@H]2[C@H](O[C@H]3CO[C@@H](O[C@H]4CC[C@]5(C)[C@H]6CC[C@]78OC(=O)[C@@]9(CC[C@](C)(C=O)C[C@H]97)[C@H](O)C[C@@]8(C)[C@]6(C)CC[C@H]5C4(C)C)[C@H](O[C@@H]4O[C@H](CO)[C@@H](O)[C@H](O)[C@H]4O)[C@H]3O)O[C@H](CO)[C@@H](O)[C@@H]2O)[C@H](O)[C@H](O)[C@H]1O [ARDISIANOSIDE J] the pIC50 [1] was 4.48, the pIC50 [2] was 4.47 and the pIC50 [3] was 4.34.
